Reference: article PMC5323433 (The pharmacogenomics journal, 2016)

Tests used:
[1] = Steady-state plasma exemestane concentration two hours after dosing; type: in vivo, human; settings: for Relative % change per variant allele (95% CI): additive model
[2] = cited from earlier work
breast cancer = settings: letrozole compared to placebo in 352 minority patients, p=0.53; cited from earlier work
[3] = CYP3A4*22 rs35599367, oral 25 mg/day, 2 h post-dose

## C=C1C[C@@H]2[C@H](CC[C@]3(C)C(=O)CC[C@@H]23)[C@@]2(C)C=CC(=O)C=C12 [exemestane]
[1]; 1st Tertile (CrCl > 108.5 mL/min), 2 h post-dose
  Median Exemestane Concentration: 5.9 ng/mL
[1]; 2nd CrCl tertile vs 1st tertile (reference)
  Relative % Change Compared with Reference (95% Confidence Interval): +42.9% (8.3%–88.5%)
[1]; 2nd Tertile (83.0 < CrCl ≤ 108.5), 2 h post-dose
  Median Exemestane Concentration: 8.6 ng/mL
[1]; 3rd CrCl tertile vs 1st tertile (reference)
  Relative % Change Compared with Reference (95% Confidence Interval): +51.1% (14.5%–99.5%)
[1]; 3rd Tertile (CrCl ≤ 83.0 mL/min), 2 h post-dose
  Median Exemestane Concentration: 8.0 ng/mL
[1]; AKR1C4 Leu311Val rs17134592
  Relative % change per variant allele (95% CI): −8% (−25%, 13%)
[1]; AKR7A2 A142T rs1043657
  Relative % change per variant allele (95% CI): −1% (−22%, 26%)
[1]; Age, per year increase
  Relative % Change (95% Confidence Interval): +0.8% (−0.4%, 2%)
[1]; BMI, per unit increase
  Relative % Change (95% Confidence Interval): −1.5% (−3%, 0%)
[1]; Black vs White (reference)
  Relative % Change Compared with Reference (95% Confidence Interval): −32.2% (−52.1%–−4.0%)
[1]; CYP1A1 15:74724835 rs2606345
  Relative % change per variant allele (95% CI): 0% (−13%, 15%)
[1]; CYP1A1*2 rs4646903
  Relative % change per variant allele (95% CI): +16% (−7%, 46%)
[1]; CYP1B1 2:38080367 rs162555
  Relative % change per variant allele (95% CI): 6% (−11%, 26%)
[1]; CYP1B1 Ala119Ser rs1056827
  Relative % change per variant allele (95% CI): −1% (−15%, 16%)
[1]; CYP1B1 Arg48Gly rs10012
  Relative % change per variant allele (95% CI): −4% (−18%, 12%)
[1]; CYP3A4*1G rs2242480
  Relative % change per variant allele (95% CI): −4% (−20%, 15%)
[1]; [3]
  Median Concentration (range), Heterozygous: 10.7 (2.8 – 72.0) ng/mL
  Median Concentration (range), Homozygous Wild-type: 7.7 (2.5 – 42.2) ng/mL
[1]; CYP4A11 −845A/G rs9332978
  Relative % change per variant allele (95% CI): +14% (−15%, 51%)
[1]; LLOQ 2.5 ng/mL, 26 of 246 patients
  Patients with concentration <LLOQ: 10.6%
[1]; Sample Collection Time 1 month, 2 h post-dose
  Median Exemestane Concentration: 6.0 ng/mL
[1]; Sample Collection Time 3 month, 2 h post-dose
  Median Exemestane Concentration: 8.0 ng/mL
[1]; elevated aminotransferases Yes vs No (reference)
  Relative % Change Compared with Reference (95% Confidence Interval): +42.9% (0.6%, 103%)
[1]; per unit increase in BMI
  Decrease in exemestane concentration per unit increase in BMI: 1.5%
[2]; hepatic impairment based on Child-Pugh grade
  Greater exemestane exposure in patients with hepatic impairment: 2–3 fold
[2]; renal impairment
  Greater exemestane exposure in patients with renal impairment: 2–3 fold

## N#Cc1ccc(C(c2ccc(C#N)cc2)n2cncn2)cc1 [letrozole]
Breast cancer
  Disease free survival hazard ratio: 1.39
